Test systems include SK-MEL-5 melanoma; HCT-15 colon; SF-295 CNS; U251 CNS; HCC-2998 colon; HOP-92 NSCLC; BT-549 breast; A498 renal; OVCAR-3 ovarian; LOX IMVI melanoma; RPMI-8226 leukemia; PC-3 prostate; 786-0 renal.
Holding throughout (experiment): NCI tumour cell line growth inhibition, 48 h

This note sets out measurements from PubChem BioAssay (NCI).

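Growth conditions: 96-well plates. Treatment: test compound, 48 hours, 5 concentrations. Analysis: linear interpolation between bracketing concentrations; unreached endpoints set to highest concentration. TGI is the concentration that stops growth completely.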

In the case of `CN1C/C(=C\c2cccs2)C(O)/C(=C/c2cccs2)C1` (centres undefined), the TGI in the assay with SK-MEL-5 melanoma, in the assay on HCT-15 colon, with SF-295 CNS, with U251 CNS, with HCC-2998 colon and in the assay with HOP-92 NSCLC was greater than 100 µM throughout. The TGI in the assay with BT-549 breast was greater than 100 µM; with A498 renal, greater than 100 µM; with OVCAR-3 ovarian it was greater than 100 µM; with LOX IMVI melanoma, greater than 100 µM; in the assay on RPMI-8226 leukemia, 89.9 µM; in the assay on PC-3 prostate it was greater than 100 µM. The same molecule had a TGI with 786-0 renal greater than 100 µM.

Regarding `NC(N)=NC(N)=Nc1ccc(S(=O)(=O)O)cc1`, the TGI in the assay with SK-MEL-5 melanoma, in the assay on HCT-15 colon, in the assay with SF-295 CNS, with U251 CNS, with HCC-2998 colon and in the assay with HOP-92 NSCLC was greater than 100 µM each time. Moreover, the TGI in the assay with BT-549 breast, in the assay with A498 renal, in the assay on OVCAR-3 ovarian, with LOX IMVI melanoma, in the assay on RPMI-8226 leukemia and with PC-3 prostate was greater than 100 µM in each case. Also, in the assay on 786-0 renal, the TGI is greater than 100 µM.

Turning to `Cc1cc2/c(=C\c3ccc(N(C)C)cc3)c3ccccc3n2[n+]1C`, the TGI was 1.58 µM with SK-MEL-5 melanoma; 34.7 µM with HCT-15 colon; 12.8 µM in the assay with SF-295 CNS; 1.78 µM with U251 CNS; 1 µM in the assay with HCC-2998 colon; 3.52 µM in the assay with HOP-92 NSCLC. Moreover, the TGI was found to be 5.99 µM in the assay with BT-549 breast; 9.33 µM in the assay with A498 renal; 2.63 µM in the assay with OVCAR-3 ovarian; 2.59 µM with LOX IMVI melanoma; 0.738 µM in the assay on RPMI-8226 leukemia; 2.38 µM in the assay on PC-3 prostate. The molecule also yielded a TGI in the assay on 786-0 renal of 8.77 µM.

As for `c1ccc(C(NCC2CCO2)(c2ccccc2)c2ccccc2)cc1` (centres undefined), the TGI with SK-MEL-5 melanoma was 63.9 µM; in the assay with HCT-15 colon it was 33.7 µM; in the assay on SF-295 CNS, 28.9 µM; with U251 CNS, 54 µM; in the assay with HCC-2998 colon it was 30.6 µM; in the assay with HOP-92 NSCLC, 32.8 µM. The TGI in the assay on BT-549 breast was 38.7 µM; in the assay with A498 renal, 36.1 µM; in the assay on OVCAR-3 ovarian, 34.5 µM; in the assay on LOX IMVI melanoma it was 95.5 µM; with RPMI-8226 leukemia it was greater than 100 µM; in the assay with PC-3 prostate, 31.6 µM. In addition, the TGI in the assay with 786-0 renal is 41.6 µM.

With `COC(CN(C(C)=O)C1CCC2(SCCS2)c2[nH]c3ccccc3c21)OC` (centres undefined), the TGI with SK-MEL-5 melanoma, in the assay with HCT-15 colon, in the assay with U251 CNS, in the assay on HCC-2998 colon, in the assay with HOP-92 NSCLC and with BT-549 breast was greater than 100 µM throughout. Further, the TGI in the assay with A498 renal is greater than 100 µM; in the assay with OVCAR-3 ovarian, greater than 100 µM; with LOX IMVI melanoma, 1.71 µM; in the assay on RPMI-8226 leukemia, greater than 100 µM; in the assay on PC-3 prostate it was greater than 100 µM; in the assay on 786-0 renal it was greater than 100 µM.

Consider `Cc1nc(C)c(N2CCN(S(=O)(=O)N(Cc3ccccc3)Cc3ccccc3)CC2)c(=O)[nH]1`, for which the TGI was greater than 100 µM in the assay with SK-MEL-5 melanoma; greater than 100 µM in the assay on HCT-15 colon; greater than 83.6 µM in the assay on SF-295 CNS; 20.4 µM with U251 CNS; greater than 100 µM in the assay on HCC-2998 colon; greater than 78.1 µM in the assay with HOP-92 NSCLC. Further, the TGI in the assay on BT-549 breast is greater than 100 µM; in the assay with A498 renal, greater than 75.7 µM; in the assay with OVCAR-3 ovarian, greater than 100 µM; with LOX IMVI melanoma, greater than 100 µM; in the assay on RPMI-8226 leukemia it was greater than 100 µM; with PC-3 prostate, greater than 100 µM. Moreover, the TGI with 786-0 renal amounted to 23.5 µM.

Regarding `COc1ccc2nc(-c3ccccc3)cc(OCC(=O)O)c2c1`, the TGI in the assay on SK-MEL-5 melanoma, in the assay with HCT-15 colon, with SF-295 CNS, with U251 CNS, in the assay on HCC-2998 colon and in the assay on HOP-92 NSCLC was greater than 100 µM in each case. The TGI in the assay on BT-549 breast, in the assay with A498 renal, in the assay on OVCAR-3 ovarian, in the assay with LOX IMVI melanoma, in the assay with RPMI-8226 leukemia and with PC-3 prostate was greater than 100 µM in each case. Moreover, the TGI in the assay with 786-0 renal is greater than 100 µM.

As for `CSc1ccc(-c2cc(-c3nc4ccccc4[nH]3)no2)cc1`, the TGI with SK-MEL-5 melanoma was 33.4 µM; with HCT-15 colon, 62.9 µM; in the assay with SF-295 CNS, greater than 100 µM; in the assay with HCC-2998 colon it was 32.1 µM; with HOP-92 NSCLC it was greater than 100 µM; with BT-549 breast it was 55.5 µM. Besides, the TGI with A498 renal is greater than 100 µM; in the assay on OVCAR-3 ovarian, 55.7 µM; in the assay with LOX IMVI melanoma it was 80.1 µM; in the assay on RPMI-8226 leukemia it was 98 µM; with PC-3 prostate it was greater than 100 µM; with 786-0 renal, greater than 100 µM.

Take `CN(C)c1ccc(/C=C2\N=C(NNc3ccccc3)NC2=O)cc1`: the TGI with HCT-15 colon was greater than 100 µM; in the assay with SF-295 CNS, 83.4 µM; in the assay on U251 CNS, 27.3 µM; in the assay with HCC-2998 colon, 30.9 µM; in the assay on HOP-92 NSCLC, 51.3 µM; in the assay on BT-549 breast, 83.2 µM. In addition, the TGI worked out at 42.1 µM with A498 renal; 35 µM with OVCAR-3 ovarian; 92.4 µM with LOX IMVI melanoma; 40.1 µM in the assay on RPMI-8226 leukemia; 29.3 µM with PC-3 prostate; 50.2 µM with 786-0 renal.
